Measurements: patent publication US9511064B2, “Combination therapy for the treatment of cancer and immunosuppression” (Basilea Pharmaceutica AG, priority 2012, dated 2016)
Like-named read-outs stand apart in the source and are kept apart here.

Assays:
mouse mast cell line 6.5 = experiment: AlamarBlue conversion cell proliferation assay, 6.5 cell line; format: cell-based
Method: (§1) The in vitro anti-proliferative activity of compounds of formula (I), metformin and combinations thereof is tested in an AlamarBlue conversion cell proliferation assay (Promega) on HL60 tumor cells and the mouse mast cell line 6.5 (Colombi et al., Oncogene 2011, 30:1551-65). Cells are seeded into 96-well microtiter plates (seeding cell density is 7,000 cells per well in 150 uL Iscove's medium) and test compounds are added (compounds of formula (I) are added from a 10 mM stock solution in DMSO, metformin from a freshly prepared 1 M solution in culture medium). Plates are incubated for 3 days at 37°, 5% CO2 and proliferation is determined by AlamarBlue staining (0.1 vol % added to cultures and incubated for further 4-5 hours). The conversion of AlamarBlue is proportional to live cell number and is read with a fluorescence plate reader (Ex/Em 535/595 nm). Growth is normalized to the untreated controls.

HL60 tumor cells = experiment: AlamarBlue conversion cell proliferation assay, HL60 cell line; format: cell-based
Method: as §1

[1] = read-out: concentration that inhibits the proliferation of cells by approximately 50% when combined with 4 mM metformin, 6.5 cell line, 3 days incubation
[2] = read-out: concentration that inhibits the proliferation of cells by approximately 50% when combined with 4 mM metformin, HL60 cell line, 3 days incubation
[3] = combined with 4 mM metformin, 3 days incubation, read-out: concentration that inhibits the proliferation of cells by approximately 50% when combined with 4 mM metformin, 6.5 cell line
[4] = combined with 4 mM metformin, 3 days incubation, read-out: concentration that inhibits the proliferation of cells by approximately 50% when combined with 4 mM metformin, HL60 cell line

| SMILES | IC50 (mouse mast cell line 6.5; [1]) [nM] | IC50 (HL60 tumor cells; [2]) [nM] | IC50 (mouse mast cell line 6.5; [3]) [nM] | IC50 (HL60 tumor cells; [4]) [nM] |
| --- | --- | --- | --- | --- |
| COC(=O)[C@H]1[C@H]2C[C@@H]3c4[nH]c5cc(OC)ccc5c4CCN3C[C@H]2C[C@@H](OC(=O)c2cc(OC)c(OC(=O)OCc3ccncc3)c(OC)c2)[C@@H]1OC [Example 6, methyl (1R,15S,17R,18R,19S,20S)-17-[(3,5-dimethoxy-4-{[(pyridin-4-ylmethoxy)carbonyl]oxy}phenyl)carbonyloxy]-6,18-dimethoxy-3,13-diazapentacyclo[11.8.0.0^2,10.0^4,9.0^15,20]henicosa-2(10),4,6,8-tetraene-19-carboxylate] | 2500 | 2500 | – | – |
| COC(=O)[C@H]1[C@H]2C[C@@H]3c4[nH]c5cc(OC)ccc5c4CCN3C[C@H]2C[C@@H](OC(=O)c2cc(OC)c(OC(=O)OCc3cccnc3)c(OC)c2)[C@@H]1OC [Example 7, methyl (1R,15S,17R,18R,19S,20S)-17-[(3,5-dimethoxy-4-{[(pyridin-3-ylmethoxy)carbonyl]oxy}phenyl)carbonyloxy]-6,18-dimethoxy-3,13-diazapentacyclo[11.8.0.0^2,10.0^4,9.0^15,20]henicosa-2(10),4,6,8-tetraene-19-carboxylate] | – | – | 2500 | 2000 |
| COC(=O)[C@H]1[C@H]2C[C@@H]3c4[nH]c5cc(OC)ccc5c4CCN3C[C@H]2C[C@@H](OC(=O)c2cc(OC)c(OC(=O)OCc3cc(OC)cc(OC)c3)c(OC)c2)[C@@H]1OC [Example 8, methyl (1R,15S,17R,18R,19S,20S)-17-{[4-({[(3,5-dimethoxyphenyl)methoxy]carbonyl}oxy)-3,5-dimethoxyphenyl]carbonyloxy}-6,18-dimethoxy-3,13-diazapentacyclo[11.8.0.0^2,10.0^4,9.0^15,20]henicosa-2(10),4,6,8-tetraene-19-carboxylate] | – | – | 5000 | 4000 |
| COC(=O)[C@H]1[C@H]2C[C@@H]3c4[nH]c5cc(OC)ccc5c4CCN3C[C@H]2C[C@@H](OC(=O)c2cc(OC)c(OC(=O)OCc3ccc(Cl)cc3)c(OC)c2)[C@@H]1OC [Example 9, methyl (1R,15S,17R,18R,19S,20S)-17-{[4-({[(4-chlorophenyl)methoxy]carbonyl}oxy)-3,5-dimethoxyphenyl]carbonyloxy}-6,18-dimethoxy-3,13-diazapentacyclo[11.8.0.0^2,10.0^4,9.0^15,20]henicosa-2(10),4,6,8-tetraene-19-carboxylate] | – | – | 4000 | 4000 |
| COC(=O)[C@H]1[C@H]2C[C@@H]3c4[nH]c5cc(OC)ccc5c4CCN3C[C@H]2C[C@@H](OC(=O)c2cc(OC)c(OC(=O)OCc3cc(Cl)cc(Cl)c3)c(OC)c2)[C@@H]1OC [Example 10, methyl (1R,15S,17R,18R,19S,20S)-17-{[4-({[(3,5-dichlorophenyl)methoxy]carbonyl}oxy)-3,5-dimethoxyphenyl]carbonyloxy}-6,18-dimethoxy-3,13-diazapentacyclo[11.8.0.0^2,10.0^4,9.0^15,20]henicosa-2(10),4,6,8-tetraene-19-carboxylate] | – | – | 1000 | 1000 |
| CCOC(=O)Oc1c(OC)cc(C(=O)O[C@@H]2C[C@@H]3CN4CCc5c([nH]c6cc(OC(=O)OC(C)(C)C)ccc56)[C@H]4C[C@@H]3[C@H](C(=O)OC)[C@H]2OC)cc1OC [Example 12, methyl (1R,15S,17R,18R,19S,20S)-6-{[(tert-butoxy)carbonyl]oxy}-17-({4-[(ethoxycarbonyl)oxy]-3,5-dimethoxyphenyl}carbonyloxy)-18-methoxy-3,13-diazapentacyclo[11.8.0.0^2,10.0^4,9.0^15,20]henicosa-2(10),4,6,8-tetraene-19-carboxylate] | 1500 | 1500 | – | – |
| CCOC(=O)Oc1c(OC)cc(C(=O)O[C@@H]2C[C@@H]3CN4CCc5c([nH]c6cc(O)ccc56)[C@H]4C[C@@H]3[C@H](C(=O)OC)[C@H]2OC)cc1OC [Example 13, methyl (1R,15S,17R,18R,19S,20S)-17-({4-[(ethoxycarbonyl)oxy]-3,5-dimethoxyphenyl}carbonyloxy)-6-hydroxy-18-methoxy-3,13-diazapentacyclo[11.8.0.0^2,10.0^4,9.0^15,20]henicosa-2(10),4,6,8-tetraene-19-carboxylate] | – | – | 1000 | 2000 |
| CCOC(=O)Oc1c(OC)cc(C(=O)O[C@@H]2C[C@@H]3CN4CCc5c([nH]c6cc(OC(C)=O)ccc56)[C@H]4C[C@@H]3[C@H](C(=O)OC)[C@H]2OC)cc1OC [Example 14, methyl (1R,15S,17R,18R,19S,20S)-6-(acetyloxy)-17-({4-[(ethoxycarbonyl)oxy]-3,5-dimethoxyphenyl}carbonyloxy)-18-methoxy-3,13-diazapentacyclo[11.8.0.0^2,10.0^4,9.0^15,20]henicosa-2(10),4,6,8-tetraene-19-carboxylate] | – | – | 1500 | 2000 |
| CCOC(=O)Oc1c(OC)cc(C(=O)O[C@@H]2C[C@@H]3CN4CCc5c([nH]c6cc(OC(=O)c7ccccc7)ccc56)[C@H]4C[C@@H]3[C@H](C(=O)OC)[C@H]2OC)cc1OC [Example 15, methyl (1R,15S,17R,18R,19S,20S)-6-(benzoyloxy)-17-({4-[(ethoxycarbonyl)oxy]-3,5-dimethoxyphenyl}carbonyloxy)-18-methoxy-3,13-diazapentacyclo[11.8.0.0^2,10.0^4,9.0^15,20]henicosa-2(10),4,6,8-tetraene-19-carboxylate] | – | – | 1500 | 2000 |
| CCOC(=O)Oc1c(OC)cc(C(=O)O[C@@H]2C[C@@H]3CN4CCc5c([nH]c6cc(OC(=O)CN)ccc56)[C@H]4C[C@@H]3[C@H](C(=O)OC)[C@H]2OC)cc1OC [Example 16, methyl (1R,15S,17R,18R,19S,20S)-6-[(2-aminoacetyl)oxy]-17-({4-[(ethoxycarbonyl)oxy]-3,5-dimethoxyphenyl}carbonyloxy)-18-methoxy-3,13-diazapentacyclo[11.8.0.0^2,10.0^4,9.0^15,20]henicosa-2(10),4,6,8-tetraene-19-carboxylate] | 1000 | 2000 | – | – |
| CCOC(=O)Oc1c(OC)cc(C(=O)O[C@@H]2C[C@@H]3CN4CCc5c([nH]c6cc(OC(=O)CNC(C)=O)ccc56)[C@H]4C[C@@H]3[C@H](C(=O)OC)[C@H]2OC)cc1OC [Example 17, methyl (1R,15S,17R,18R,19S,20S)-6-[(2-acetamidoacetyl)oxy]-17-({4-[(ethoxycarbonyl)oxy]-3,5-dimethoxyphenyl}carbonyloxy)-18-methoxy-3,13-diazapentacyclo[11.8.0.0^2,10.0^4,9.0^15,20]henicosa-2(10),4,6,8-tetraene-19-carboxylate] | – | – | 1000 | 1500 |
| CCOC(=O)Oc1c(OC)cc(C(=O)O[C@@H]2C[C@@H]3CN4CCc5c([nH]c6cc(OC(=O)CNC(=O)c7ccccc7)ccc56)[C@H]4C[C@@H]3[C@H](C(=O)OC)[C@H]2OC)cc1OC [Example 18, methyl (1R,15S,17R,18R,19S,20S)-17-({4-[(ethoxycarbonyl)oxy]-3,5-dimethoxyphenyl}carbonyloxy)-18-methoxy-6-{[2-(phenylformamido)acetyl]oxy}-3,13-diazapentacyclo[11.8.0.0^2,10.0^4,9.0^15,20]henicosa-2(10),4,6,8-tetraene-19-carboxylate] | – | – | 1000 | 1500 |
| COC(=O)[C@H]1[C@H]2C[C@@H]3c4[nH]c5cc(OC)ccc5c4CCN3C[C@H]2C[C@@H](OC(=O)c2cc(OC)c(OC(=O)Cc3ccccc3)c(OC)c2)[C@@H]1OC [Example 20, methyl (1R,15S,17R,18R,19S,20S)-17-({3,5-dimethoxy-4-[(2-phenylacetyl)oxy]phenyl}carbonyloxy)-6,18-dimethoxy-3,13-diazapentacyclo[11.8.0.0^2,10.0^4,9.0^15,20]henicosa-2(10),4,6,8-tetraene-19-carboxylate] | 5000 | 5000 | – | – |
| COC(=O)[C@H]1[C@H]2C[C@@H]3c4[nH]c5cc(OC)ccc5c4CCN3C[C@H]2C[C@@H](OC(=O)c2cc(OC)c(OC(=O)OCc3ccccc3)c(OC)c2)[C@@H]1OC [Example 21, methyl (1R,15S,17R,18R,19S,20S)-17-[(4-{[(benzyloxy)carbonyl]oxy}-3,5-dimethoxyphenyl)carbonyloxy]-6,18-dimethoxy-3,13-diazapentacyclo[11.8.0.0^2,10.0^4,9.0^15,20]henicosa-2(10),4,6,8-tetraene-19-carboxylate] | 2000 | 3500 | – | – |
| COC(=O)[C@H]1[C@H]2C[C@@H]3c4[nH]c5cc(OC)ccc5c4CCN3C[C@H]2C[C@@H](OC(=O)c2cc(OC)c(OC(=O)OCc3cccc(Br)c3)c(OC)c2)[C@@H]1OC [Example 31] | – | – | 2000 | 2000 |
| COC(=O)[C@H]1[C@H]2C[C@@H]3c4[nH]c5cc(OC)ccc5c4CCN3C[C@H]2C[C@@H](OC(=O)c2cc(OC)c(OC(=O)OCc3cccc(C(F)(F)F)c3)c(OC)c2)[C@@H]1OC [Example 32] | – | – | 2000 | 2000 |
| COC(=O)[C@H]1[C@H]2C[C@@H]3c4[nH]c5cc(OC)ccc5c4CCN3C[C@H]2C[C@@H](OC(=O)c2cc(OC)c(OC(=O)OCc3cc(F)cc(F)c3)c(OC)c2)[C@@H]1OC [Example 33] | – | – | 2000 | 2000 |
